These results are taken from US20210244743A1 (priority 2020, published 2021).

One series relates to SARS-CoV-2. In words: SARS-CoV-2 viral transcript levels by quantitative real-time PCR in Vero E6 cells. The format is cell-based. The note with it: for EC50: Severe acute respiratory syndrome coronavirus 2, Vero C1008, Vero E6 cells, compound added 3 hours after virus (100 TCID50), assayed 48 hours later, read-out: EC50, viral transcript copy number.
The subject of another series is SARS. As to the kind of experiment: microbe, parasite or virus in culture. The conditions noted are these: Severe acute respiratory syndrome coronavirus, Vero, read-out: average EC50 (50% virus inhibitory concentration). The format is cell-based, SARS-CoV.
The test system of another series is MERS. In words: microbe, parasite or virus in culture. In kind it is cell-based, MERS-CoV. The note with it: Middle East respiratory syndrome-related coronavirus, Vero, read-out: average EC50 (50% virus inhibitory concentration).
Another series is described as follows: in vitro. The conditions noted are these: African green monkey.

Take `Cc1cccc(/C=N/Nc2cc(N3CCOCC3)nc(OCCc3ccccn3)n2)c1` [apilimod dimesylate]: in the series with SARS-CoV-2 (SARS-CoV-2, Vero E6 cells), the “selectivity index (CC50/EC50)” value came to 9.1. Also, the EC50 with SARS-CoV-2 was found to be 2.2 µM; in the series with SARS, 3.7 µM; in the series with MERS, 13.8 µM. The molecule further gave a CC50 in “in vitro” of 20 µM.
As to `CCC(CC)COC(=O)[C@H](C)N[P@](=O)(OC[C@H]1O[C@@](C#N)(c2ccc3c(N)ncnn23)[C@H](O)[C@@H]1O)Oc1ccccc1` [remdesivir], in the series on SARS-CoV-2, the EC50 worked out at 0.7 µM. The CC50 in “in vitro” was determined as 205 µM.
